Measurements: patent US12029715B2, “Precursor compounds for providing retinoids of the vitamin A5 pathway and uses thereof” (UNIVERSITY OF DEBRECEN, priority 2015, dated 2024)
“Also recorded” adds a separate entry of the source.

Columns and labels:
[1] = system: Rbp1−/− and Rxrγ−/− mice; experiment: Y-maze spontaneous alternation; format: in vivo, mouse; conditions: 5-6 hours prior to testing
Protocol: The Y-maze apparatus and the procedure were as previously described (Wietrzych et al., 2005). Briefly, each mouse was placed at the end of one arm and allowed to explore freely the apparatus for 5 min, with the experimenter out of the animal's sight. Spontaneous alternation performance (SAP) was assessed visually by scoring the pattern of entries into each arm and expressed as a percentage of total number of entries, discounting the first two visits. Total entries were scored as an index of ambulatory activity in the Y-maze, but none of tested mice had to be excluded due to low locomotor performance (score below 9 entries).
Vehicle treatments consisted of 3% ethanol and 3% DMSO solution in sunflower oil. Treatments were administered by intraperitoneal injections at volume/weight ratio 3 ml/kg between 8-10 am and 5-6 h before the test as previously validated (Wietrzych-Schindler M, 2011).

[2] = Mouse oral supplementation, retinoid levels in serum, brain and liver (LC-MS); format: in vivo; conditions: mice, per os 40 mg/kg, 11 h after treatment
Protocol: For metabolic analyses ATROL, 9CDHROL, 9CDHBC and control solutions were prepared as described above. Single per os application of the dose of 40 mg/kg of each substance was used to treat mice in the evening and samples were collected 11 h later in the light protected conditions, weighted, frozen in liquid nitrogen and stored at −80° C. until analyses. Serum was prepared and immediately stored in brown vials at −80° C., till further analysis.
Accordingly, for sample preparation 100 mg of the material (if samples were under 100 mg, water was added up to the used standard weight: 100 mg) or 100 μl serum was diluted with a threefold volume of isopropanol, the tissues were minced by scissors, vortexed for 10 seconds, put in a ultrasonic bath for 5 minutes, shaken for 6 minutes and centrifuged at 13000 rpm in a Heraeus BIOFUGE Fresco at +4° C. […] The dried extracts were resuspended with 30 μl of methanol—MTBE (50-50) and transferred into the autosampler and 10 μl subsequently analysed.
Mouse brain samples were prepared according to the procedure described above. Briefly, after single per os application of the dose of 40 mg/kg of 9CDHROL (or other cited substances) in the evening mice were sacrificed after 11 hours and tissues samples including brain were dissected under light-protection conditions, weighted, frozen in liquid nitrogen and stored at −80° C. until analyses. Serum was prepared and immediately stored in brown vials at −80° C., till further analysis.
For mouse supplementation experiments we treated n=6 mice per os with 40 mg/kg bw 9CDHROL and 11 h after the treatment the mice were killed and blood, brain and liver was taken. After centrifugation of the drawn blood, serum was obtained.

[3] = biological target: T1, hRXRα LBD (Homo sapiens, UniProt P19793); experiment: Fluorescence quenching assay, binding to RXRα LBD
T1 sequence (P19793 223-462): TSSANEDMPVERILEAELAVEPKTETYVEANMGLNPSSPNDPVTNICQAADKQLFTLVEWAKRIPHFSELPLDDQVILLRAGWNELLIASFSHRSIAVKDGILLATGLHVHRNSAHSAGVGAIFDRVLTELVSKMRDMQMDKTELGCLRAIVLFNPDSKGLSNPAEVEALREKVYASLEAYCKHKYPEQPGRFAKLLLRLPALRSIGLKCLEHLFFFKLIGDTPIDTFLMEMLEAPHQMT
Protocol: Quenching of tryptophan fluorescence was monitored at 10° C. using 5 nm of excitation and 5 nm of emission slit-width.

[4] = system: hRARα, β and γ LBDs; experiment: ESI-MS in non-denaturing conditions, binding to RAR LBD isotypes; design: species or system human; conditions: 5-fold molar excess of ligand
Protocol: (§1) cDNAs encoding hRXRα LBD (223-462), hRARα LBD (153-421), hRARBβ LBD (169-414) and hRARγ LBD (178-423) were cloned into pET28b vector to generate N-terminal Histag fusion proteins. Purification was carried out as previously described [Lippert W P et al. 2009, Osz J, et al. 2012], including a metal affinity chromatography and a gel filtration. For details of sample preparation and ESI-MS analyses see below.
cDNAs encoding hRXRαLBD (223-462), hRARαLBD (153-421), hRARβLBD (169-414) and hRARγ LBD (178-423) were cloned into pET28b vector to generate N-terminal His-tag fusion proteins. Purification was carried out as previously described [Lippert W P et al. 2009, Osz J, et al. 2012], including a metal affinity chromatography and a gel filtration. Prior to ESI-MS analysis, samples were desalted on Zeba Spin desalting columns (Pierce) in 150 mM ammonium acetate (pH 8.0). ESI-MS measurements were performed on an electrospray time-of-flight mass spectrometer (MicrOTOF, Bruker Daltonics). Purity and homogeneity of the proteins were verified by mass spectrometry in denaturing conditions (samples were diluted at 2 pmol/μl in a 1:1 water-acetonitrile mixture (v/v) acidified with 1% formic acid). The mass measurements of the noncovalent complexes were performed in ammonium acetate (200 mM; pH 8.0). […]

[5] = biological target: T1, hRXRα LBD; experiment: ESI-MS in non-denaturing conditions, binding to RXR LBD; design: cDNAs encoding hRXRα LBD (223-462); His-tag (N); made in house; conditions: titration monitored by ESI-MS
Protocol: as §1
cDNAs encoding hRXRαLBD (223-462), hRARαLBD (153-421), hRARβLBD (169-414) and hRARγ LBD (178-423) were cloned into pET28b vector to generate N-terminal His-tag fusion proteins. Purification was carried out as previously described [Lippert W P et al. 2009, Osz J, et al. 2012], including a metal affinity chromatography and a gel filtration. Prior to ESI-MS analysis, samples were desalted on Zeba Spin desalting columns (Pierce) in 150 mM ammonium acetate (pH 8.0). ESI-MS measurements were performed on an electrospray time-of-flight mass spectrometer (MicrOTOF, Bruker Daltonics). Purity and homogeneity of the proteins were verified by mass spectrometry in denaturing conditions (samples were diluted at 2 pmol/μl in a 1:1 water-acetonitrile mixture (v/v) acidified with 1% formic acid). The mass measurements of the noncovalent complexes were performed in ammonium acetate (200 mM; pH 8.0). Samples were diluted to 8 pmol/ml in the previous buffer and continuously infused into the ESI ion source at a flow rate of […] through a Harvard syringe pump (Harvard Apparatus model 11). A careful optimization of the interface parameters was performed to obtain the best sensitivity and spectrum quality without affecting the noncovalent complexes stability. In particular, the capillary exit (CE) ranged from 60 to 150 V with a vacuum interface pressure of 2.3 mbar and was set to 80 V. For ligand-interaction analysis, ligands were added to the proteins in a 5-fold molar excess.

Compound: CC1(C)CCC(C)(C)c2cc(C3(c4ccc(C(=O)O)cc4)OCCO3)ccc21 [UVI2108, reference compound]
- working memory in spontaneous alternation in the Y-maze ([1]; Rbp1−/− mice, ATRA 5 mg/kg, UVI2108 1 mg/kg, MA 5 mg/kg, DHA 1 mg/kg, TTNPB 5 mg/kg): normalised; also recorded: pro-mnemonic effects
- working memory in spontaneous alternation in the Y-maze ([1]; Rxrγ−/− mice, same doses): not

Compound: CC1=C(/C=C/C(C)=C\C=C\C(C)CCO)C(C)(C)CCC1 (stereo not drawn) [9CDHROL, 9-cis-13,14-dihydroretinol]
- 9CDHRA levels in serum, brain and liver after treatment (conversion to 9CDHRA) [2]: strong increase; also recorded: strongly increased; also recorded: best conversion
- 9CDHROL levels in serum, brain and liver after treatment [2]: strongly increased; also recorded: strong and significantly increased levels

Compound: CC(C=CC1=C(C)CCCC1(C)C)=CC=CC(C)CC(=O)O (stereo not drawn) [9CDHRA, 9-cis-13,14-dihydroretinoic acid]
- Kd [3]: 90 ± 20 nM

Compound: CC1=C(/C=C/C(C)=C\C=C\[C@H](C)CC(=O)O)C(C)(C)CCC1 [(R)-9CDHRA, (9Z,13R)-13,14-Dihydroretinoic Acid]
- binding to RAR LBD isotypes in ESI-MS [4]: bind to all RAR LBD isotypes
- Kd [3]: 90 ± 20 nM
- higher affinity than (S)-9CDHRA for RXR LBD (peak amplitude) [5]: about 65%
- lower affinity than 9CRA for RXR LBD (peak amplitude) [5]: approximately 30%
